Consider 18 compounds from patent US9346809B2 (LEO PHARMA A/S, priority 2009, dated 2016).

Holding throughout (assay type): biochemical
The target in assay [1] is T1, JAK3 (catalytic domain, His-tag) (Homo sapiens, UniProt P52333).
T1 construct: All four purified enzymes contain only the catalytic domain; His (N); purchased Carna Biosciences, Inc; host or cells: baculovirus expression system
The assay can be described thus: JAK kinase assay (HTRF, phosphorylation of TK substrate-biotin), JAK3. The settings on record: ATP at Km (2 μM). The method, boiled down: (§1)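 Compound was mixed with TK substrate-biotin (1 μM final), then kinase plus ATP at its Km was added and left 20-30 min at room temperature. Detection mix with EDTA, Streptavidin-XL665 and STK Ab Cryptate stopped the reaction; after overnight dark incubation, HTRF was read and EC50 derived.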
(In TR-FRET formats the signal depends on donor and acceptor labels being close together.)

Assay [2] deals with T2, TYK2 (aa 871-1187, catalytic domain, GST-tag) (Homo sapiens, UniProt P29597).
T2 construct: JAK1 (aa 850-1154) and TYK2 (aa 871-1187) are expressed with an N-terminally fused GST-tag; GST (N); purchased Carna Biosciences, Inc; host or cells: baculovirus expression system
T2 sequence (P29597 871-1187): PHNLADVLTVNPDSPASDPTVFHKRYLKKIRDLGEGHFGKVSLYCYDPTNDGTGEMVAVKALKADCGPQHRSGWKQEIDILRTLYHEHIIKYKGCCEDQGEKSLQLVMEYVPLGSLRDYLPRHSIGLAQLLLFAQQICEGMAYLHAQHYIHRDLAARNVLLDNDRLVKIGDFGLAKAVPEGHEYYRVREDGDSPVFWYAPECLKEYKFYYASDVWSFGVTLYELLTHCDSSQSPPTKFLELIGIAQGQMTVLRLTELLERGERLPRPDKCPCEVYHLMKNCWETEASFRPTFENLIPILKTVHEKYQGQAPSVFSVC
Put plainly: JAK kinase assay (HTRF, phosphorylation of TK substrate-biotin), TYK2. The settings on record: ATP at Km (13 μM). The method, boiled down: as §1

In assay [3] the target is T3, JAK1 (aa 850-1154, catalytic domain, GST-tag) (Homo sapiens, UniProt P23458).
T3 construct: JAK1 (aa 850-1154) and TYK2 (aa 871-1187) are expressed with an N-terminally fused GST-tag; GST (N); purchased Carna Biosciences, Inc; host or cells: baculovirus expression system
Put plainly: JAK kinase assay (HTRF, phosphorylation of TK substrate-biotin), JAK1. Particulars: ATP at Km (7 μM). The method, boiled down:
as §1

In assay [4] the target is T4, JAK2 (catalytic domain, His-tag) (Homo sapiens, UniProt O60674).
T4 construct: All four purified enzymes contain only the catalytic domain; His (N); purchased Carna Biosciences, Inc; host or cells: baculovirus expression system
Put plainly: JAK kinase assay (HTRF, phosphorylation of TK substrate-biotin), JAK2. Particulars: ATP at Km (4 μM). The method, boiled down: as §1

The mark [5] stands for this setting: HTRF assay, read-out: JAK3 kinase inhibitory activity (EC50 indicator).
The mark [6] stands for this setting: HTRF assay, read-out: TYK2 kinase inhibitory activity (EC50 indicator).
[7] abbreviates: HTRF assay, read-out: JAK1 kinase inhibitory activity (EC50 indicator).
Where [8] appears, read: HTRF assay, read-out: JAK2 kinase inhibitory activity (EC50 indicator).
Where [9] appears, read: HTRF assay, read-out: JAK3 kinase inhibitory activity (EC50).
[10] abbreviates: HTRF assay, read-out: TYK2 kinase inhibitory activity (EC50).
The mark [11] stands for this setting: HTRF assay, read-out: JAK1 kinase inhibitory activity (EC50).
[12] abbreviates: HTRF assay, read-out: JAK2 kinase inhibitory activity (EC50).
Where [13] appears, read: read-out: JAK3 kinase inhibitory activity (EC50 indicator).
Where [14] appears, read: read-out: TYK2 kinase inhibitory activity (EC50 indicator).
Setting [15] is: read-out: JAK1 kinase inhibitory activity (EC50 indicator).
Where [16] appears, read: read-out: JAK2 kinase inhibitory activity (EC50 indicator).

Usually EC50 stands for the midpoint of the concentration-response curve.

Like-named read-outs stand apart in the source and are kept apart here.

T1 sequence (P52333 822-1111 limits assumed): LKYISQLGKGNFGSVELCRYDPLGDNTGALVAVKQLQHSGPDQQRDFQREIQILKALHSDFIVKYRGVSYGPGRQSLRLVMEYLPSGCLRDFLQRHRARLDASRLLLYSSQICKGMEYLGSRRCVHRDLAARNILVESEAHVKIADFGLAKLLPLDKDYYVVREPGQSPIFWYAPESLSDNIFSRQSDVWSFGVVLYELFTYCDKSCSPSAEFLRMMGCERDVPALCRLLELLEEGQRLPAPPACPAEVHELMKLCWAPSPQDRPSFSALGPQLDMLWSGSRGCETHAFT
T3 sequence (P23458 850-1154): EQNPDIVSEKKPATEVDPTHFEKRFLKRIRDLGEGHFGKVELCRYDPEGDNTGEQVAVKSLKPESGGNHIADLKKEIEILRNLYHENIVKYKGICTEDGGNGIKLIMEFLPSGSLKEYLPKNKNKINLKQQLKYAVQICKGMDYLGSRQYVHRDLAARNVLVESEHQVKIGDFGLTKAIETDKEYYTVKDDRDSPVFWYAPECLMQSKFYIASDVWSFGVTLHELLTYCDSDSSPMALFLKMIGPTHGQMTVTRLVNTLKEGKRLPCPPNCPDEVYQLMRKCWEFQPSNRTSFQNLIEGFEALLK
T4 sequence (O60674 849-1124 limits assumed): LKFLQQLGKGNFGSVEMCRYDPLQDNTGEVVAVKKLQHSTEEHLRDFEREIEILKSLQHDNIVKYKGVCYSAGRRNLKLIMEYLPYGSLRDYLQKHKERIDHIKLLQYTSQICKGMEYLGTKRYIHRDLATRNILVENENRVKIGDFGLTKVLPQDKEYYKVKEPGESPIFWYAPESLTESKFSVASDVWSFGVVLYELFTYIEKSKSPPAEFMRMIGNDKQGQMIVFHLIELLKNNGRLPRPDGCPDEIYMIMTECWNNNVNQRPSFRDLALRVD

In the case of `COc1cnc2[nH]ccc2c1N1CCN(C(=O)CCCC#N)C2(CC2)C1` [Example 293, 5-[7-(5-Methoxy-1H-pyrrolo[2,3-b]pyridin-4-yl)-4,7-diaza-spiro[2.5]oct-4-yl]-5-oxo-pentanenitrile], the EC50 is under 100 nM in assay [1] (setting [5]), 100 to 500 nM in assay [2] (setting [6]), under 100 nM in assay [3] (setting [7]) and under 100 nM in assay [4] (setting [8]).

In the case of `N#Cc1ccc2c(C(=O)N3CCN(c4ncnc5[nH]ccc45)CC34CC4)n[nH]c2c1` [Example 301, 3-[7-(7H-Pyrrolo[2,3-d]pyrimidin-4-yl)-4,7-diaza-spiro[2.5]octane-4-carbonyl]-1H-indazole-6-carbonitrile], the EC50 was under 100 nM in assay [1] (setting [5]), 100 to 500 nM in assay [2] (setting [6]), under 100 nM in assay [3] (setting [7]) and under 100 nM in assay [4] (setting [8]).

Turning to `Cc1ccc(S(N)(=O)=O)cc1C(=O)N1CCN(c2ncnc3[nH]ccc23)CC12CC2` [Example 388, 4-Methyl-3-[7-(7H-pyrrolo[2,3-d]pyrimidin-4-yl)-4,7-diaza-spiro[2.5]octane-4-carbonyl]-benzenesulfonamide], the EC50 in assay [1] (setting [5]) was under 100 nM; in assay [2] (setting [6]) it was over 500 nM; in assay [3] (setting [7]) it was under 100 nM; in assay [4] (setting [8]), under 100 nM.

For the compound `O=C(c1csc2ccccc12)N1CCN(c2ncnc3[nH]ccc23)CC12CC2` [Example 214, Benzo[b]thiophen-3-yl-[7-(7H-pyrrolo[2,3-d]pyrimidin-4-yl)-4,7-diaza-spiro[2.5]oct-4-yl]-methanone], the EC50 in assay [1] (setting [5]), in assay [2] (setting [6]), in assay [3] (setting [7]) and in assay [4] (setting [8]) was under 100 nM throughout.

With `COc1cnc2[nH]ccc2c1N1CCN(C(=O)c2ccc(C#N)c(F)c2)C2(CC2)C1` [Example 292, 2-Fluoro-4-[7-(5-methoxy-1H-pyrrolo[2,3-b]pyridin-4-yl)-4,7-diaza-spiro[2.5]octane-4-carbonyl]-benzonitrile], the EC50 is 100 to 500 nM in assay [1] (setting [5]), over 500 nM in assay [2] (setting [6]), over 500 nM in assay [3] (setting [7]) and 100 to 500 nM in assay [4] (setting [8]).

As to `N#CCCCC(=O)N1CCN(c2ncnc3[nH]cc(Cl)c23)CC12CC2` [Example 322, 5-[7-(5-Chloro-7H-pyrrolo[2,3-d]pyrimidin-4-yl)-4,7-diaza-spiro[2.5]oct-4-yl]-5-oxo-pentanenitrile], the EC50 in assay [1] (setting [5]) was 100 to 500 nM; in assay [2] (setting [6]) it was over 500 nM; in assay [3] (setting [7]), over 500 nM; in assay [4] (setting [8]) it was over 500 nM.

With `CN(C)CCC(=O)N1CCN(c2ncnc3[nH]ccc23)CC12CC2` [Example 457, 3-Dimethylamino-1-[7-(7H-pyrrolo[2,3-d]pyrimidin-4-yl)-4,7-diaza-spiro[2.5]oct-4-yl]-propan-1-one], the EC50 in assay [1] (setting [9]), in assay [2] (setting [10]), in assay [3] (setting [11]) and in assay [4] (setting [12]) was over 500 nM in each case.

On to `O=C(c1csc2ccccc12)N1[C@H]2CC[C@H]1CN(c1ncnc3[nH]ccc13)C2` [Example 246, Benzo[b]thiophen-3-yl-[3-(7H-pyrrolo[2,3-d]pyrimidin-4-yl)-3,8-diaza-bicyclo[3.2.1]oct-8-yl]-methanone], for which the EC50 is under 100 nM in assay [1] (setting [5]), 100 to 500 nM in assay [2] (setting [6]), under 100 nM in assay [3] (setting [7]) and under 100 nM in assay [4] (setting [8]).

`NS(=O)(=O)c1ccc(OCC(=O)N2CCN(c3ncnc4[nH]ccc34)CC23CC3)c(F)c1` [Example 434, 3-Fluoro-4-{2-oxo-2-[7-(7H-pyrrolo[2,3-d]pyrimidin-4-yl)-4,7-diaza-spiro[2.5]oct-4-yl]-ethoxy}-benzenesulfonamide]: the EC50 in assay [1] (setting [9]), in assay [2] (setting [10]), in assay [3] (setting [11]) and in assay [4] (setting [12]) was under 100 nM each time.

For the compound `O=C(Cc1ccc(C(F)(F)F)cc1)N1CCN(c2ncnc3[nH]cc(Cl)c23)CC12CC2` [Example 321, 1-[7-(5-Chloro-7H-pyrrolo[2,3-d]pyrimidin-4-yl)-4,7-diaza-spiro[2.5]oct-4-yl]-2-(4-trifluoromethyl-phenyl)-ethanone], the EC50 in assay [1] (setting [5]) was under 100 nM; in assay [2] (setting [6]) it was over 500 nM; in assay [3] (setting [7]), 100 to 500 nM; in assay [4] (setting [8]) it was 100 to 500 nM.

Turning to `COC(=O)c1cc2c(N3CCN(C(=O)CCC#N)C4(CC4)C3)ncnc2[nH]1` [Example 340], the EC50 in assay [1] (setting [5]), in assay [2] (setting [6]), in assay [3] (setting [7]) and in assay [4] (setting [8]) was over 500 nM each time.

For the compound `O=C(c1cc2ccccc2s1)N1[C@@H]2CC[C@@H]1CN(c1ncnc3[nH]ccc13)C2` [Example 169, Benzo[b]thiophen-2-yl-[3-(7H-pyrrolo[2,3-d]pyrimidin-4-yl)-3,8-diaza-bicyclo[3.2.1]oct-8-yl]-methanone], the EC50 was under 100 nM in assay [1] (setting [13]), over 500 nM in assay [2] (setting [14]), under 100 nM in assay [3] (setting [15]) and under 100 nM in assay [4] (setting [16]).

Consider `O=C(c1ccncc1)N1CCN(c2ncnc3[nH]ccc23)CC12CC2` [Example 3, Pyridin-4-yl-[7-(7H-pyrrolo[2,3-d]pyrimidin-4-yl)-4,7-diazaspiro[2.5]oct-4-yl]-methanone], for which the EC50 was 100 to 500 nM in assay [1] (setting [13]), 100 to 500 nM in assay [2] (setting [14]), under 100 nM in assay [3] (setting [15]) and under 100 nM in assay [4] (setting [16]).

On to `N#CCN1CCCC(C(=O)N2CCN(c3ncnc4[nH]ccc34)CC23CC3)C1` (stereo not drawn) [Example 94, {3-[7-(7H-Pyrrolo[2,3-d]pyrimidin-4-yl)-4,7-diaza-spiro[2.5]octane-4-carbonyl]-piperidin-1-yl}-acetonitrile], for which the EC50 is 100 to 500 nM in assay [1] (setting [13]), 100 to 500 nM in assay [2] (setting [14]), 100 to 500 nM in assay [3] (setting [15]) and under 100 nM in assay [4] (setting [16]).

In the case of `NS(=O)(=O)c1ccc(C(=O)N2C3CCC2CN(c2ncnc4[nH]ccc24)C3)o1` [Example 203], the EC50 in assay [1] (setting [13]) was under 100 nM; in assay [2] (setting [14]), over 500 nM; in assay [3] (setting [15]) it was under 100 nM; in assay [4] (setting [16]) it was under 100 nM.

Consider `CC1CN(C(=O)Cc2ccc(C#N)cc2)C2(CC2)CN1c1ncnc2[nH]ccc12` (stereo not drawn) [Example 147, 4-{2-[6-Methyl-7-(7H-pyrrolo[2,3-d]pyrimidin-4-yl)-4,7-diaza-spiro[2.5]oct-4-yl]-2-oxo-ethyl}-benzonitrile], for which the EC50 in assay [1] (setting [13]), in assay [2] (setting [14]), in assay [3] (setting [15]) and in assay [4] (setting [16]) was under 100 nM throughout.

As for `COC(=O)c1cc2c(N3CCN(C(=O)Cc4cccc(CC#N)c4)C4(CC4)C3)ncnc2[nH]1` [Example 121, 4-{4-[2-(3-Cyanomethyl-phenyl)-acetyl]-4,7-diaza-spiro[2.5]oct-7-yl}-7H-pyrrolo[2,3-d]pyrimidine-6-carboxylic acid methyl ester], the concentration for a half-maximal effect (EC50) in assay [1] (setting [13]), in assay [2] (setting [14]), in assay [3] (setting [15]) and in assay [4] (setting [16]) was over 500 nM in each case.

For `CS(=O)(=O)c1ccc(C(=O)N2[C@@H]3CC[C@@H]2CN(c2ncnc4[nH]ccc24)C3)cc1` [Example 356, (4-Methanesulfonyl-phenyl)-[3-(7H-pyrrolo[2,3-d]pyrimidin-4-yl)-3,8-diaza-bicyclo[3.2.1]oct-8-yl]-methanone], the EC50 in assay [1] (setting [5]) is 100 to 500 nM; in assay [2] (setting [6]) it was over 500 nM; in assay [3] (setting [7]), under 100 nM; in assay [4] (setting [8]), under 100 nM.
